{"source": "patent US20180265707A1", "about": "“DICHROIC DYE COMPOUND, DICHROIC DYE COMPOSITION, LIGHT-ABSORBING ANISOTROPIC FILM, POLARIZING ELEMENT, AND IMAGE DISPLAY DEVICE” (FUJIFILM Corporation, priority 2015, published 2018)"}
{"assay": "Solubility in cyclopentanone", "type": "physicochemical", "conditions": "solvent cyclopentanone", "method": "For Compounds (1) to (8) thus synthesized, solubility in cyclopentanone was measured.", "units": {"Solubility in cyclopentanone": "% by mass"}}
{"smiles": "CCCCCCCCCCCCc1ccc(/N=N/c2cc3sc(/N=N/c4ccc(N(CC)CC)cc4)nc3s2)cc1", "note": "[Compound (6), reference compound]", "Solubility in cyclopentanone": 0.59}
{"smiles": "CCCOC(=O)c1ccc(/N=N/c2cc3sc(/N=N/c4ccc(N(CC)CC)cc4)nc3s2)cc1", "note": "[Compound (7), reference compound]", "Solubility in cyclopentanone": 0.19}
{"smiles": "CCN(CC)c1ccc(/N=N/c2nc3sc(/N=N/c4ccc(CCC(=O)OCCC(C)CCCC(C)C)cc4)cc3s2)cc1", "note": "(centres unmarked) [Compound (2)]", "Solubility in cyclopentanone": 4.5}
{"smiles": "CCN(CC)c1ccc(/N=N/c2nc3sc(/N=N/c4ccc(CCOC(=O)CCC(=O)OCCC(C)CCCC(C)C)cc4)cc3s2)cc1", "note": "(centres unmarked) [Compound (4)]", "Solubility in cyclopentanone": 5.4}
{"smiles": "CCCCOC(=O)CCC(=O)OCCc1ccc(/N=N/c2cc3sc(/N=N/c4ccc(N(CC)CC)cc4)nc3s2)cc1", "note": "[Compound (1)]", "Solubility in cyclopentanone": 1.6}
{"smiles": "CCCCC(CC)C(=O)OCCc1ccc(/N=N/c2cc3sc(/N=N/c4ccc(N(CC)CC)cc4)nc3s2)cc1", "note": "(centres unmarked) [Compound (3)]", "Solubility in cyclopentanone": 6.0}
{"smiles": "CCCCCCCCCC(=O)OCCc1ccc(/N=N/c2cc3sc(/N=N/c4ccc(N(CC)CC)cc4)nc3s2)cc1", "note": "[Compound (8), reference compound]", "Solubility in cyclopentanone": 0.50}
{"smiles": "CCCCCC(=O)OCCCCOC(=O)c1ccc(/N=N/c2cc3sc(/N=N/c4ccc(N(CC)CC)cc4)nc3s2)cc1", "note": "[Compound (5)]", "Solubility in cyclopentanone": 1.2}
